From US10544130B2, “Metallo-beta-lactamase inhibitors” (priority 2015, dated 2020)

What follows are compounds tested on Pseudomonas aeruginosa PAO1 MB9798 (efflux+, IMP-1). Conditions: ratio MITC95 PA 9798/MITC95 PA 9799; imipenem at 2 μg/mL.
Excerpt: The strain background was Pseudomonas aeruginosa PAO1.
The strain set was then used as a pair to determine the effect of metallo-β-lactamase inhibitors of Formula I on the MIC of imipenem and/or ceftazidime. A fixed concentration of antibiotic was included in standard microbroth MIC tests, usually at the CLSI (Clinical and Laboratory Standards Institute) breakpoint concentration. A fixed amount of a class A/C beta-lactamase inhibitor was also included to inhibit the resident Pseudomonas AmpC enzyme. A serial titration of the metallo-β-lactamase inhibitor was included and the concentration of metallo-β-lactamase inhibitor which restores susceptibility of the strain to the included antibiotic was recorded. That concentration of metallo-β-lactamase inhibitor was then compared between the two strains to determine the fold difference between the efflux + (MB9798) and efflux − (MB9799) strains. This was taken as an indication of the extent to which the MBLi is subject to efflux.
`NC(=O)[C@@H](N)CNS(=O)(=O)c1ccc(-c2cccc3[nH]c(N)nc23)c(-c2nn[nH]n2)c1S(N)(=O)=O` [Example 189, (2S)-2-amino-3-(4-(2-amino-1H-benzo[d]imidazol-4-yl)-2-sulfamoyl-3-(2H-tetrazol-5-yl)phenylsulfonamido)propanamide] was tested, and the Efflux ratio was 0.50.
`Cn1c(N)nc2c(-c3ccc(S(=O)(=O)N[C@H]4CC[N+](C)(C)C4)c(S(N)(=O)=O)c3-c3nn[n-]n3)cccc21` [Example 167, (S)-5-(6-(2-amino-1-methyl-1H-benzo[d]imidazol-4-yl)-3-(N-(1,1-dimethylpyrrolidin-1-ium-3-yl)sulfamoyl)-2-sulfamoylphenyl)tetrazol-2-ide] was tested, and the Efflux ratio was 2.00.
Work on `Nc1nc2c(-c3ccc(S(=O)(=O)NC4CCNCC4)c(S(N)(=O)=O)c3-c3nnn[nH]3)cccc2s1` [Example 32, 4-(2-amino-1,3-benzothiazol-4-yl)-N1-piperidin-4-yl-3-(1H-tetrazol-5-yl)benzene-1,2-disulfonamide] yielded an Efflux ratio of 0.50.
In the case of `NC[C@@H](N)CNS(=O)(=O)c1ccc(-c2cccc(-c3n[nH]c(N)n3)c2)c(-c2nn[nH]n2)c1S(N)(=O)=O` [Example 230, (R)-3′-(5-amino-1H-1,2,4-triazol-3-yl)-N4-(2,3-diaminopropyl)-2-(2H-tetrazol-5-yl)-[1,1′-biphenyl]-3,4-disulfonamide], the Efflux ratio was 1.00.
Work on `Cc1ccc(-c2ccc(S(=O)(=O)N[C@@H]3CCNC3)c(S(N)(=O)=O)c2-c2nn[nH]n2)c2nc(N)[nH]c12` [Example 285, (R)-4-(2-amino-7-methyl-1H-benzo[d]imidazol-4-yl)-N1-(pyrrolidin-3-yl)-3-(2H-tetrazol-5-yl)benzene-1,2-disulfonamide] yielded an Efflux ratio of 1.00.
Compound `CN(C)C1CCN(S(=O)(=O)c2ccc(-c3cccc4sc(N)nc34)c(-c3nnn[nH]3)c2S(N)(=O)=O)CC1` [Example 26, 3-(2-amino-1,3-benzothiazol-4-yl)-6-{[4-(dimethylamino)piperidin-1-yl]sulfonyl}-2-(1H-tetrazol-5-yl)benzenesulfonamide] has an Efflux ratio of 2.00.
`Nc1nc2c(-c3ccc(S(=O)(=O)NCC(=O)O)c(S(N)(=O)=O)c3-c3nn[nH]n3)cccc2s1` [Example 153, ((4-(2-aminobenzo[d]thiazol-4-yl)-2-sulfamoyl-3-(2H-tetrazol-5-yl)phenyl)sulfonyl)glycine] was tested, and the Efflux ratio was 1.00.
`C[C@H](CN)NS(=O)(=O)c1ccc(-c2cccc3[nH]c(N)nc23)c(-c2nn[nH]n2)c1S(N)(=O)=O` [Example 187, 4-(2-amino-1H-benzo[d]imidazol-4-yl)-N^1—((R)-1-aminopropan-2-yl)-3-(2H-tetrazol-5-yl)benzene-1,2-disulfonamide] showed an Efflux ratio of 0.50.
For `NC[C@@H](N)CNS(=O)(=O)c1ccc(-c2cccc3ccc(N)nc23)c(-c2nn[nH]n2)c1S(N)(=O)=O` [Example 376, (R)-4-(2-aminoquinolin-8-yl)-N1-(2,3-diaminopropyl)-3-(2H-tetrazol-5-yl)benzene-1,2-disulfonamide], the Efflux ratio was 1.00.
For `NS(=O)(=O)c1c(S(=O)(=O)N[C@H]2C[C@H](N)C2)ccc(-c2cccc3[nH]cnc23)c1-c1nn[nH]n1` [Example 200, N^1-((1r,3r)-3-aminocyclobutyl)-4-(1H-benzo[d]imidazol-4-yl)-3-(2H-tetrazol-5-yl)benzene-1,2-disulfonamide], the Efflux ratio was 1.00.
With `NCCNS(=O)(=O)c1ccc(-c2cccc(C(=O)NC[C@H](N)CO)c2N)c(-c2nn[nH]n2)c1S(N)(=O)=O` [Example 333, (S)-2-amino-N-(2-amino-3-hydroxypropyl)-4′-(N-(2-aminoethyl)sulfamoyl)-3′-sulfamoyl-2′-(2H-tetrazol-5-yl)-[1,1′-biphenyl]-3-carboxamide] the Efflux ratio was 1.00.
`Nc1nc2c(-c3ccc(S(=O)(=O)NC4CCS(=O)(=O)CC4)c(S(N)(=O)=O)c3-c3nnn[nH]3)cccc2s1` [Example 14, 4-(2-amino-1,3-benzothiazol-4-yl)-N1-(1,1-dioxidotetrahydro-2H-thiopyran-4-yl)-3-(1H-tetrazol-5-yl)benzene-1,2-disulfonamide] gave an Efflux ratio of 1.00.
With `Nc1ncccc1-c1ccc(S(=O)(=O)N[C@H]2C[C@@H]2N)c(S(N)(=O)=O)c1-c1nn[nH]n1` [Example 216, N1-((1S)-2-aminocyclopropyl)-4-(2-aminopyridin-3-yl)-3-(2H-tetrazol-5-yl)benzene-1,2-disulfonamide] the Efflux ratio was 4.00.
Compound `Nc1nc2c(-c3ccc(S(=O)(=O)N4CC[C@@H](N)C4)c(S(N)(=O)=O)c3-c3nnn[nH]3)cccc2s1` [Example 62, 3-(2-amino-1,3-benzothiazol-4-yl)-6-{[(3R)-3-aminopyrrolidin-l-yl]sulfonyl}-2-(1H-tetrazol-5-yl)benzenesulfonamide] has an Efflux ratio of 1.00.
With `Nc1cncc(-c2ccc(S(=O)(=O)N[C@@H]3CCNC3)c(S(N)(=O)=O)c2-c2nn[nH]n2)c1` [Example 219, (R)-4-(5-aminopyridin-3-yl)-N1-(pyrrolidin-3-yl)-3-(2H-tetrazol-5-yl)benzene-1,2-disulfonamide] the Efflux ratio was 1.00.
Work on `CN(C[C@@H]1CCCN1)S(=O)(=O)c1ccc(-c2cccc3sc(N)nc23)c(-c2nnn[nH]2)c1S(N)(=O)=O.O=CO` [Example 121, (S)-2-((4-(2-aminobenzo[d]thiazol-4-yl)-N-methyl-2-sulfamoyl-3-(1H-tetrazol-5-yl)phenylsulfonamido)methyl)pyrrolidin-1-ium formate] yielded an Efflux ratio of 4.00.
`Nc1nc2cccc(-c3ccc(S(N)(=O)=O)c(S(N)(=O)=O)c3-c3nn[nH]n3)c2[nH]1` [Example 1, 4-(2-amino-3H-benzo[d]imidazol-4-yl)-3-(2H-tetrazol-5-yl)benzene-1,2-disulfonamide] showed an Efflux ratio of 0.65.
Compound `CN(C)C(=O)CNS(=O)(=O)c1ccc(-c2cccc3sc(N)nc23)c(-c2nnn[nH]2)c1S(N)(=O)=O` [Example 36, N^2-{[4-(2-amino-1,3-benzothiazol-4-yl)-2-sulfamoyl-3-(1H-tetrazol-5-yl)phenyl]sulfonyl}-N,N-dimethylglycinamide] has an Efflux ratio of 1.00.
With `COC(=O)[C@H]1C[C@@H](NS(=O)(=O)c2ccc(-c3cccc4sc(N)nc34)c(-c3nnn[nH]3)c2S(N)(=O)=O)CN1` [Example 128, Methyl(2R,4R)-4-((4-(2-aminobenzo[d]thiazol-4-yl)-2-sulfamoyl-3-(1H-tetrazol-5-yl)phenyl)sulfonamido)pyrrolidine-2-carboxylate] the Efflux ratio was 1.00.
For `Nc1nc2c(-c3ccc(S(=O)(=O)N4CCNCC4)c(S(N)(=O)=O)c3-c3nn[nH]n3)cccc2o1` [Example 159, 3-(2-aminobenzo[d]oxazol-4-yl)-6-(piperazin-1-ylsulfonyl)-2-(2H-tetrazol-5-yl)benzenesulfonamide], the Efflux ratio was 2.00.
`N[C@H](CO)CNS(=O)(=O)c1ccc(-c2cccc3[nH]cnc23)c(-c2nn[nH]n2)c1S(N)(=O)=O` [Example 296, (S)—N^1-(2-amino-3-hydroxypropyl)-4-(1H-benzo[d]imidazol-4-yl)-3-(2H-tetrazol-5-yl)benzene-1,2-disulfonamide] was tested, and the Efflux ratio was 1.00.
`Cn1c(N)nc2c(-c3ccc(S(=O)(=O)NCCCN)c(S(N)(=O)=O)c3-c3nn[nH]n3)cccc21` [Example 183, 4-(2-amino-1-methyl-1H-benzo[d]imidazol-4-yl)-N^1-(3-aminopropyl)-3-(2H-tetrazol-5-yl)benzene-1,2-disulfonamide] gave an Efflux ratio of 1.00.
With `NC[C@H](O)CNS(=O)(=O)c1ccc(-c2ccc(N)nc2)c(-c2nn[nH]n2)c1S(N)(=O)=O` [Example 309, (S)-N1-(3-amino-2-hydroxypropyl)-4-(6-aminopyridin-3-yl)-3-(2H-tetrazol-5-yl)benzene-1,2-disulfonamide] the Efflux ratio was 1.00.
In the case of `Nc1nc2c(-c3ccc(S(=O)(=O)N4CC5CC4CS5(=O)=O)c(S(N)(=O)=O)c3-c3nnn[nH]3)cccc2s1` (stereo not shown) [Example 40, 3-(2-amino-1,3-benzothiazol-4-yl)-6-[(2,2-dioxido-2-thia-5-azabicyclo[2.2.1]hept-5-yl)sulfonyl]-2-(1H-tetrazol-5-yl)benzenesulfonamide], the Efflux ratio was 16.00.
`CN1CC[C@@H](CNS(=O)(=O)c2ccc(-c3cccc4sc(N)nc34)c(-c3nnn[nH]3)c2S(N)(=O)=O)C1` [Example 76, 4-(2-amino-1,3-benzothiazol-4-yl)-N^1-{[(3R)-1-methylpyrrolidin-3-yl]methyl}-3-(1H-tetrazol-5-yl)benzene-1,2-disulfonamide] gave an Efflux ratio of 0.50.
Compound `C[C@H](N)CNS(=O)(=O)c1ccc(-c2cccc3[nH]c(N)nc23)c(-c2nn[nH]n2)c1S(N)(=O)=O` [Example 184, 4-(2-amino-1H-benzo[d]imidazol-4-yl)-N1-((S)-2-aminopropyl)-3-(2H-tetrazol-5-yl)benzene-1,2-disulfonamide] has an Efflux ratio of 1.00.
In the case of `Nc1nc2c(-c3ccc(S(=O)(=O)NC4CN5CCC4CC5)c(S(N)(=O)=O)c3-c3nnn[nH]3)cccc2s1.O=C(O)C(F)(F)F` (stereo not shown) [Example 97, 3-(4-(2-aminobenzo[d]thiazol-4-yl)-2-sulfamoyl-3-(1H-tetrazol-5-yl)phenylsulfonamido) quinuclidin-1-ium 2,2,2-trifluoroacetate], the Efflux ratio was 1.00.
`Nc1nc2c(-c3ccc(S(=O)(=O)N[C@H]4CNC[C@H]4N)c(S(N)(=O)=O)c3-c3nn[nH]n3)cccc2[nH]1` [Example 241, 4-(2-amino-1H-benzo[d]imidazol-4-yl)-N^1-((3S,4R)-4-aminopyrrolidin-3-yl)-3-(2H-tetrazol-5-yl)benzene-1,2-disulfonamide] showed an Efflux ratio of 0.83.
